The values below come from patent publication EP0018104A2, “Tetrahydroisoquinolines, their production and the compounds and pharmaceutical compositions containing them for use in the prevention or treatment of hypertension” (Takeda Chemical Industries, Ltd., priority 1979, dated 1980).

SMILES strings stand for the structures. Where two headings read alike, the source gives them in different places.

In experiment [1] the target is T1, angiotensin I converting enzyme (ACE) (Oryctolagus cuniculus, UniProt P12822).
T1 construct: prepared from the lungs of albino rabbit according to the method described by Wallace et al; from tissue; host or cells: lungs of albino rabbit
T1 sequence (P12822 34-1310): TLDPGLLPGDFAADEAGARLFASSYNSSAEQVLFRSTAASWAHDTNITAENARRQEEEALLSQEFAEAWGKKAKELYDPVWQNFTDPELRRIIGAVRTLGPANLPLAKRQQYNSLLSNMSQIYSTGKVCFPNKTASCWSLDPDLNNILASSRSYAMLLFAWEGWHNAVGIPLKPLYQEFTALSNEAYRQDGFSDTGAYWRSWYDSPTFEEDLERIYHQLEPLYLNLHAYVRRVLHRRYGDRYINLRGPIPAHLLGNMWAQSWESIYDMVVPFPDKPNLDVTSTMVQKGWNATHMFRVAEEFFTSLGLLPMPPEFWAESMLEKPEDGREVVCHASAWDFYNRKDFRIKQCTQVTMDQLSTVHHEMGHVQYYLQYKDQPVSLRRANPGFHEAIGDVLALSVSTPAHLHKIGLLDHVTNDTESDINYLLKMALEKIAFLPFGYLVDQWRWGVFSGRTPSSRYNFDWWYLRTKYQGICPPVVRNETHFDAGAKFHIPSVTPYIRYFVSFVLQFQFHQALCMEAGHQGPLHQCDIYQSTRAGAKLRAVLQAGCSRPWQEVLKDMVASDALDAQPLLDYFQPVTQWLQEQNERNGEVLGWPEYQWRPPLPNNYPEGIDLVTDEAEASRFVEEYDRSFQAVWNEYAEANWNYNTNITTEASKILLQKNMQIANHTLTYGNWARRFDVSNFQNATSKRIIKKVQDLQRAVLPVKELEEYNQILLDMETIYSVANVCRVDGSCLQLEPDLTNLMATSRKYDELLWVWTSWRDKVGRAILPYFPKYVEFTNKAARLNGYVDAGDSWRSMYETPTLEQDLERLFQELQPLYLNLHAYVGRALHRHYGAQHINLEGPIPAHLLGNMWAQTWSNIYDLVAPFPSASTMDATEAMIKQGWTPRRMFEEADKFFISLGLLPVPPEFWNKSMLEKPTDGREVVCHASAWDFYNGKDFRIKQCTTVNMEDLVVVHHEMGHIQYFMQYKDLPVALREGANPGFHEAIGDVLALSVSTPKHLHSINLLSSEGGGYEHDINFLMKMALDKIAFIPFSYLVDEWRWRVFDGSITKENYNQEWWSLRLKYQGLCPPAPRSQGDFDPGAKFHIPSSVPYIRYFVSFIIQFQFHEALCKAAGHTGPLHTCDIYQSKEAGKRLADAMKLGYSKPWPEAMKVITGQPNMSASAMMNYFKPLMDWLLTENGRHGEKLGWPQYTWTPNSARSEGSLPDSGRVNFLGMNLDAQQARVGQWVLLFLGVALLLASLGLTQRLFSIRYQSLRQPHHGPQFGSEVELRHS
As to the kind of experiment: Inhibition of angiotensin I converting enzyme (HHL substrate, hippuric acid colorimetry, modified Cushman method). Type of experiment: biochemical, albino rabbit. The following applies: ACE from rabbit lung, 37°C, one hour, read-out: Inhibitory Activity on ACE (%); for inhibition at 1 µM: Concentration 1 µM; for inhibition at 10 µM: Concentration 10 µM. The procedure:
Inhibitions of Angiotensin I Converting Enzyme by the Compounds of this Invention.
The experiment was conducted in accordance with a modification of the method described by Cushman et al. [Biochemical Pharmacology, Vol. 20, p1637(1971)] using an angiotensin I converting enzyme (ACE) prepared from the lungs of albino rabbit according to the method described by Wallace et al. [American Journal of Physiology, Vol 234, page R141(1978)]. That is, using hippuryl-L-histidyl-L-leucin (HHL) as the substrate, the ACE inhibitory activity was determined in terms of percentage inhibitation on the amount of hippurie acid produced by ACE when the present compound was added. A solution of the compound of the present invention dissolved in an 0.02 to 2% dimethyl sulfoxide-500 mMpotassium phosphate buffer solution (pH 8.3, containing 300 mM sodium chloride) was added to 100 µℓ of ACE (protein concentration, 20 mg/mℓ) and 100 µℓ of 1.25 mM HHL. In this experiment a potassium phosphate buffer solution containing dimethyl sulfoxide at a concentration equal to that of the test solution was used as a control. After incubating the solution at 37°C for one hour, 150 µℓ of 1N hydrochloric acid were added to the solution to terminate the reaction. After 1 mℓ of ethyl acetate was added, the solution was centrifuged at 3000 r.p.m. for 10 minutes. An 0.5 mℓ aliquot was separated from the ethyl acetate layer and dried at a temperature below 50°C under a nitrogen. gas stream. The residue was mixed with mℓ of 1M aqueous sodium chloride and the mixture was subjected to colorimetry at a wavelength of 228 nm.

The test system of experiment [2] is Hypertensive Activity of Angiotensin I. Kind of experiment: Effect against hypertensive activity of angiotensin I in anaesthetized-cannulated rats after oral dosing. The conditions noted are these: Rattus norvegicus, 138 µM/kg orally, corrected by angiotensin II response. It is filed as in vivo, Male rats (Sprague-Dawley). The procedure:
Male rats (Sprague-Dawley) weighing 230 to 350 g, which were fed under free access to drinking water and feeds, were used as experimental animals. The rats were anaesthetized with intraperitoneal administration of pentobarbital sodium (50 mg/kg) on the day before the test day, and a polyethylene tube was inserted into each femoral artery for measurement of blood pressare and the femoral vein for injection of angiotensin I and II, and then the tubes were fixed.
On the test day, an average blood pressure in the control phase was recorded on an electric haemedynamemeter (MP-4T model manufactured by Nippon Koden, Japan) and, thereafter, angiotensin I and then angionensin II were injected through the femoral vein at a dose of […] and 100 ng/kg, respectively, to measure the hypertensive activity. Then, 138 µM/kg of the compound of this invention were administrated orally as an aqueous solution or an aqueous gum arabic suspension, […], angiotensin I and II were injected repeatedly to trace hypertensive reactions. In calculating the percentage inhibition to the hypertensive activity of angiotensin 1, the percentage inhibitory value was corrected based on the variation with time in the hypertensive reaction by anziotensin II.

[3] abbreviates: 20 min, After 20 min, read-out: Percent Inhibition (%) against Hyper-tensive Reaction by Angiotensin I After 20 min.
The mark [4] stands for this setting: 1 h, After 60 min, read-out: Percent Inhibition (%) against Hyper-tensive Reaction by Angiotensin I After 60 min.
Setting [5] is: 2 h, After 120 min, read-out: Percent Inhibition (%) against Hyper-tensive Reaction by Angiotensin I After 120 min.

For `CC(=O)SCC(C)C(=O)N1Cc2cc(O)c(O)cc2C[C@H]1C(=O)O` (stereo partly drawn) [Example 1, (3S)-2-(3-acetylthio-2-methylpropionyl)-6,7-dihydroxy-1,2,3,4-tetrahydroisoquinoline-5-carboxylie aeid], in experiment [1], the inhibition at 1 µM was found to be 23% and the inhibition at 10 µM came out at 87%.
For `CC(=O)SCC(C)C(=O)N1Cc2cc(C(C)(C)C)ccc2CC1C(=O)O` (stereo not shown) [Example 3, 2-(3-acetylthio-2-methylpropionyl)-7-tert-utyl-1,2,3,4-tetrahydroisoquinoline-3-carboxylic acid], the values for the inhibition in vivo at 138 µM, 138 µmol/kg in experiment [2] (setting [3]), in experiment [2] (setting [4]) and in experiment [2] (setting [5]) were 86%, 94% and 90%, respectively.
Turning to `CC(=O)SCC(C)C(=O)N1Cc2cc3c(cc2CC1C(=O)O)CCCC3` (stereo not shown) [Example 4], the inhibition in vivo at 138 µM, 138 µmol/kg in experiment [2] (setting [3]) stood at 90%; in experiment [2] (setting [4]), 79%; in experiment [2] (setting [5]) it was 63%.
For `CC(=O)SCC(C)C(=O)N1[C@H](C)c2cc(O)c(O)cc2C[C@H]1C(=O)O` (stereo partly shown) [Example 5, (M, 3S)-2-(5-acetylthio-2-methylpropionyl)-6,7-dihycroxy-1-methyl-1,2,3,4-tetrahydroisquinoline-3-carboxylie acid], the values for the inhibition in vivo at 138 µM, 138 µmol/kg in experiment [2] (setting [3]), in experiment [2] (setting [4]) and in experiment [2] (setting [5]) were 84%, 98% and 96%, respectively.
For `COc1cc2c(cc1OC)CN(C(=O)C(C)CSC(C)=O)C(C(=O)O)C2` (stereo not shown) [Example 6, 2-(3-acetylthio-2-methylpropionyl)-6,7-dimethoxy-1,2,3,4-tetrahydroisoquinoline-3-carboxylic aeid], in experiment [1], the inhibition at 1 µM stood at 62% and the inhibition at 10 µM was found to be 99%.
For `CC(=O)SCC(C)C(=O)N1Cc2cc(C)ccc2CC1C(=O)O` (stereo not shown) [Example 7], in that order: 63% and 88%.
Consider `COc1cc2c(cc1O)CN(C(=O)C(C)CSC(C)=O)C(C(=O)O)C2` (stereo not shown) [Example 14, 2-(3-acetylthio-2-methylpropionyl)-7-hydroxy-6-methoxy-1,2,3,4-tetrahydroisoquinoline-3-carbxylic acid], for which, in experiment [1], the inhibition at 1 µM is 33% and the inhibition at 10 µM came to 90%.
Turning to `CC(=O)SCC(C)C(=O)N1Cc2ccc(O)cc2CC1C(=O)O` (stereo not shown) [Example 19, 2-(3-acetylthio-2-methylpropionyl)-6-hydroxy-1,2,3,4-tetrahydroisoquinoline-3-carboxylic acid], in experiment [1], the inhibition at 1 µM worked out at 61% and the inhibition at 10 µM amounted to 98%.
Consider `COc1ccc2c(c1)CN(C(=O)C(C)CSC(C)=O)C(C(=O)O)C2` (stereo not shown) [Example 23, 2-(3-acetylthio-2-methylpropionyl)-7-methoxy-1,2, 3.4-tetrahydroisoquinoline-3-carboxylic acid], for which the inhibition in vivo at 138 µM, 138 µmol/kg stood at 80% in experiment [2] (setting [3]), 82% in experiment [2] (setting [4]) and 87% in experiment [2] (setting [5]).
For `CC(=O)SCC(C)C(=O)N1Cc2cc(N3CCCC3)ccc2CC1C(=O)O` (stereo not shown) [Example 43], the inhibition in vivo at 138 µM, 138 µmol/kg in experiment [2] (setting [3]) was determined as 100%; in experiment [2] (setting [4]), 95%; in experiment [2] (setting [5]), 87%.
As to `CC(CS)C(=O)N1Cc2cc(C(C)(C)C)ccc2C[C@H]1C(=O)O` (stereo partly drawn) [Example 51, (3S)-7-tert-butyl-2-(3-mercapto-2-methylproplonyl)-1,2,3,4-tetrahydroisoquinoline-3-carboxylic acid], the inhibition in vivo at 138 µM, 138 µmol/kg worked out at 100% in experiment [2] (setting [3]), 100% in experiment [2] (setting [4]) and 78% in experiment [2] (setting [5]).
On to `CC(=O)SCC(CSC(C)=O)C(=O)N1Cc2cc(O)c(O)cc2C[C@H]1C(=O)O` [Example 56, (S)-2-(3-acetylthio-2-acetylthiomethyl-propionyl)-6,7-dihydroxy-1,2,3,4-tetrahydroisoquinoline-3-carboxylic acid], for which the inhibition in vivo at 138 µM, 138 µmol/kg in experiment [2] (setting [3]) stood at 80%; in experiment [2] (setting [4]), 84%; in experiment [2] (setting [5]), 69%.
For `CC(=O)SCC(CSC(C)=O)C(=O)N1Cc2cc3c(cc2CC1C(=O)O)CCCC3` (stereo not shown) [Example 58, 2-(3-acetylthio-2-acetylthiomethylpropionyl)-1,2,3,4,6,7,8,9-octahydrobenzo[g]isoquinoline-3--carboxylic aeid], in that order: 80%, 78% and 66%.
As for `CC(=O)SCC(CSC(C)=O)C(=O)N1Cc2ccc(O)cc2CC1C(=O)O` (stereo not shown) [Example 60, 2-(3-acetylthio-2-acetylthiomethylpropionyl)-6-hydroxy-1,2,3,4-tetrahydroisoquinoline-3-carboxylic acid], the inhibition in vivo at 138 µM, 138 µmol/kg in experiment [2] (setting [3]) is 82%; in experiment [2] (setting [4]), 77%; in experiment [2] (setting [5]), 71%.
For `CC(=O)SCC(CSC(C)=O)C(=O)N1Cc2cc(C(C)C)ccc2CC1C(=O)O` (stereo not shown) [Example 61, 2-(3-aeetylthio-2-acetylthiomethylpropionyl)-7-isopropyl-1,2,3,4-tetrahydroisoquinoline-3-carboxylic acid], in that order: 78%, 84% and 58%.
As to `O=C(O)C1Cc2cc3c(cc2CN1C(=O)C(CS)CS)OCO3` (stereo not shown) [Example 69, 2-(3-mercapto-2-mercapthylpropionyl)-6,7-methylenedioxy-1,2,3,4-tetrahydroisooquinoline-3-carboxylic acid], the values for the inhibition in vivo at 138 µM, 138 µmol/kg in experiment [2] (setting [3]), in experiment [2] (setting [4]) and in experiment [2] (setting [5]) were 95%, 77% and 76%, respectively.
